“And” between values parts separate entries of the source, which are not always exact repeats. Equal entries are not always repeated. Inconclusive results and toxic doses are left out. How the source made its calls: active means survival T/C of 150% or more; inactive means T/C below 125% in these data.
System: P388 leukemia ip, CD2F1 mice, survival T/C
Assay: NCI In Vivo Anticancer Drug Screen. Data for tumor model P388 Leukemia (intraperitoneal) in CD2F1 (CDF1) mice
Settings: endpoint: median survival time, higher = longer survival
Summary of the method: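 Mice carrying the transplanted tumor received test compound or vehicle. Survival was recorded in each group, and the value is the treated-group measurement divided by that of the vehicle-treated control group.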

[1] = dose: 50.0 mg/kg/injection, schedule: Q01DX009 (ip), vehicle: saline
[2] = dose: 100.0 mg/kg/injection, schedule: Q01DX009 (ip), vehicle: saline
[3] = dose: 200.0 mg/kg/injection, schedule: Q01DX009 (ip), vehicle: saline
[4] = dose: 50.0 mg/kg/injection, schedule: Q01DX009 (ip), vehicle: saline with Tween-80

Measured: T/C

O=C(Nc1ccc(C2=NCCN2)cc1)c1ccc(C(=O)Nc2ccc(C3=NCCN3)cc2)c(NC(=O)c2ccc(C(=O)Nc3cc(C(=O)Nc4ccc(C5=NCCN5)cc4)ccc3C(=O)Nc3ccc(C4=NCCN4)cc3)cc2)c1
inactive: dose: 25.0 mg/kg/injection, schedule: Q01DX010 (ip), vehicle: saline 90 % of control | dose: 50.0 mg/kg/injection, schedule: Q01DX010 (ip), vehicle: saline 86 % of control | dose: 100.0 mg/kg/injection, schedule: Q01DX010 (ip), vehicle: saline 100 % of control | dose: 200.0 mg/kg/injection, schedule: Q01DX010 (ip), vehicle: saline 100 % of control

N#CC(C(N)=O)C(CC(=O)c1ccccc1)c1ccccc1 (centres undefined)
inactive: dose: 50.0 mg/kg/injection, schedule: Q01DX005 (ip), vehicle: Klucel (hydroxypropylcellulose) (HPC) 100 % of control | dose: 100.0 mg/kg/injection, schedule: Q01DX005 (ip), vehicle: Klucel (hydroxypropylcellulose) (HPC) 102 % of control | dose: 200.0 mg/kg/injection, schedule: Q01DX005 (ip), vehicle: Klucel (hydroxypropylcellulose) (HPC) 101 % of control

CC1CC[N-]C(N)C1.CC1CC[N-]C(N)C1.[Cl][Pt+2][Cl] (centres undefined)
inactive: dose: 100.0 mg/kg/injection, schedule: Q01DX001 (sc), vehicle: olive oil, sesame oil, peanut oil 106 % of control | dose: 200.0 mg/kg/injection, schedule: Q01DX001 (sc), vehicle: olive oil, sesame oil, peanut oil 106 % of control | dose: 400.0 mg/kg/injection, schedule: Q01DX001 (sc), vehicle: olive oil, sesame oil, peanut oil 107 % of control

O=C(CCc1ccc(O)cc1)ON1C(=O)CCC1=O
inactive: dose: 12.5 mg/kg/injection, schedule: Q01DX009 (ip), vehicle: Klucel (hydroxypropylcellulose) (HPC) 108 % of control | dose: 25.0 mg/kg/injection, schedule: Q01DX009 (ip), vehicle: Klucel (hydroxypropylcellulose) (HPC) 109 % of control | dose: 50.0 mg/kg/injection, schedule: Q01DX009 (ip), vehicle: Klucel (hydroxypropylcellulose) (HPC) 104 % of control

Cc1cnc(Sc2ncccc2[N+](=O)[O-])nc1
inactive: [1] 109 % of control | [2] 109 % of control | [3] 116 % of control

O=C(O)C[N-]CC[N-]CC(=O)O.[Cl][Pt+2][Cl]
inactive: dose: 6.25 mg/kg/injection, schedule: Q04DX002 (ip), vehicle: saline with Tween-80 108 % of control | dose: 12.5 mg/kg/injection, schedule: Q04DX002 (ip), vehicle: saline with Tween-80 103 % of control | dose: 25.0 mg/kg/injection, schedule: Q04DX002 (ip), vehicle: saline with Tween-80 113 % of control | dose: 50.0 mg/kg/injection, schedule: Q04DX002 (ip), vehicle: saline with Tween-80 109 % of control | dose: 100.0 mg/kg/injection, schedule: Q04DX002 (ip), vehicle: saline with Tween-80 120 % of control | dose: 200.0 mg/kg/injection, schedule: Q04DX002 (ip), vehicle: saline with Tween-80 102 % of control

Nc1ccc2cc(Cl)ccc2c1
inactive: dose: 16.5 mg/kg/injection, schedule: Q01DX009 (ip), vehicle: saline with Tween-80 90 % of control

CCCN(CCC)c1nc2ccc(NC(=O)OCC)cc2s1
inactive: dose: 12.5 mg/kg/injection, schedule: Q01DX009 (ip), vehicle: saline 95 % of control | dose: 25.0 mg/kg/injection, schedule: Q01DX009 (ip), vehicle: saline 100 % of control | [4] 101 % of control | [1] 100 % of control

C#CC(CC)(CC)N=Cc1cc(Cl)cc(Cl)c1O
inactive: [4] 98 % of control | dose: 100.0 mg/kg/injection, schedule: Q01DX009 (ip), vehicle: saline with Tween-80 94 % of control | dose: 200.0 mg/kg/injection, schedule: Q01DX009 (ip), vehicle: saline with Tween-80 96 % of control

CCOC(=O)C(Cc1ccccc1Cl)(Cc1ccccc1Cl)c1ccccc1
inactive: dose: 266.0 mg/kg/injection, schedule: Q01DX009 (ip), vehicle: saline with Tween-80 98 % of control | dose: 400.0 mg/kg/injection, schedule: Q01DX009 (ip), vehicle: saline with Tween-80 111 % of control | dose: 600.0 mg/kg/injection, schedule: Q01DX009 (ip), vehicle: saline with Tween-80 96 % of control

CC(=O)N(c1ccccc1)c1ccccc1[N+](=O)[O-]
inactive: [1] 87 % of control | [2] 86 % of control | [3] 86 % of control

CCCSc1ccc2nc(NC(=O)OC)[nH]c2c1
inactive: dose: 60.0 mg/kg/injection, schedule: Q01DX005 (ip), vehicle: saline with Tween-80 106 % of control and 111 % of control | dose: 120.0 mg/kg/injection, schedule: Q01DX005 (ip), vehicle: saline with Tween-80 109 % of control and 112 % of control
active: dose: 480.0 mg/kg/injection, schedule: Q01DX005 (ip), vehicle: saline with Tween-80 156 % of control

— PubChem BioAssay AID330 (DTP/NCI, 2004)
